26 compounds from patent US20240246918A1, “COMPOUNDS AND COMPOSITIONS AS EIF4E INHIBITORS AND THE USES THEREOF” (Ribometrix, Inc., priority 2022, published 2024) can be followed below.

For one assay, the target named is T1, human eIF4E protein (Homo sapiens, UniProt P06730).
T1 construct: purchased Novus NBP-45314
The assay can be described thus: Biochemical competitive binding assay (TR-FRET competition, EDA-m7GDP-ATTO-647N probe). To be noted: read-out: hEIF4E TR-FRET IC50. Summed up:
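His-tagged human eIF4E (4 nM) was preincubated with Eu-anti-His antibody (2.5 nM) and added to compound (11-point, 4-fold dilutions) for 15 min. Then 5 nM EDA-m7GDP-ATTO-647N was added for 15 min, in HEPES pH 7.5, 100 mM KCl. The 665/620 TR-FRET ratio was normalized to controls, and IC50 was taken from 4-parameter fits.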

Assay [1] concerns COLO 205 colorectal tumor cells. Put plainly: Tumor cell viability inhibition assay (CellTiter-Glo 2.0, 72 hours). The conditions noted are these: COLO 205 cell viability. It counts as cell-based. Summed up: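 COLO 205 cells (1500/well, RPMI-1640 + 10% FBS) exposed for 72 h to an 11-point, 4-fold dilution series; cellular ATP read by CellTiter-Glo 2.0 luminescence. Data normalized to DMSO and maximum-inhibition controls; IC50 from 4-parameter curve fit.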
On the technique in general: In ATP-based viability assays light output follows the ATP content of the culture.

T1 sequence (P06730 whole entry): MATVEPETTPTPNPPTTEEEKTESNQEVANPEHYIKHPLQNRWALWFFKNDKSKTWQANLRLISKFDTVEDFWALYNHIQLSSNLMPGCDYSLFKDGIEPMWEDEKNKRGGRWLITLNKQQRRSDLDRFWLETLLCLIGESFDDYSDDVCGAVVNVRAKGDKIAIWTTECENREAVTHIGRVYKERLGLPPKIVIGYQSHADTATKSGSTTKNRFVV

In general, IC50 refers to the midpoint of a concentration-inhibition curve. `Cc1cc(-c2cc(Cl)ccc2OCCn2c(C)nc3c(c2=O)C[C@@H](N2CCC(c4cn(C)cn4)CC2)CC3)c2scc(C(=O)O)c2n1` (single isomer, unassigned) [Compound 487]: the IC50 is < 100 nM on human eIF4E protein and > 20 µM in assay [1] (Homo sapiens, COLO 205, 72 h).
For `Cc1cc(-c2cc(Cl)ccc2OCCn2c(C)nc3c(c2=O)C[C@@H](N(C)[C@H]2CC[C@@](C)(O)C2)CC3)c2scc(C(=O)O)c2n1` (single isomer, unassigned) [Compound 184], in that order: < 100 nM and > 20 µM.
On to `Cc1cc(-c2cc(Cl)ccc2OCCn2c(C)nc3c(c2=O)CC(N2CCC4(CC2)CN(CC(F)(F)F)CC4(F)F)CC3)c2scc(C(=O)O)c2n1` (single isomer, unassigned) [Compound 529], for which the IC50 at human eIF4E protein was < 100 nM; in assay [1] (Homo sapiens, COLO 205, 72 h), < 5 µM.
Turning to `Cc1cc(-c2cc(Cl)ccc2OCCn2c(C)nc3c(c2=O)CC(C)(N2CCC(OC(F)(F)F)CC2)CC3)c2scc(C(=O)O)c2n1` (single isomer, unassigned) [Compound 516], the IC50 was < 100 nM at human eIF4E protein and < 5 µM in assay [1].
Take `Cc1csc([C@H]2CCCN([C@@H]3CCc4nc(C)n(CCOc5ccc(Cl)cc5-c5cc(C)nc6c(C(=O)O)csc56)c(=O)c4C3)C2)n1` (single isomer, unassigned) [Compound 483]: the IC50 at human eIF4E protein is < 100 nM; in assay [1] (Homo sapiens, COLO 205, 72 h), < 5 µM.
For `Cc1cc(-c2cc(Cl)ccc2OCCn2c(C)nc3c(c2=O)C[C@H](N2CCCC[C@@H]2C(F)(F)F)CC32CC2)c2scc(C(=O)O)c2n1` (single isomer, unassigned) [Compound 624], in that order: 100 to 500 nM and 5 to 20 µM.
Take `Cc1cc(-c2cc(Cl)ccc2OCCn2c(C)nc3c(c2=O)CC(C)(N2CCC4(CC2)CC4(F)F)CC3)c2scc(C(=O)O)c2n1` (single isomer, unassigned) [Compound 556]: the IC50 at human eIF4E protein was < 100 nM; in assay [1] (Homo sapiens, COLO 205, 72 h) it was < 5 µM.
Taken in the same sequence, the figures for `COC1CCN(C2CCc3nc(C)n(CC#Cc4ccc(Cl)cc4-c4ccnc5c(C(=O)O)csc45)c(=O)c3C2)CC1` (single isomer, unassigned) [Compound 365] were < 100 nM and < 5 µM.
Regarding `Cc1cc(-c2cc(Cl)ccc2OCCn2c(C)nc3c(c2=O)C[C@H](N2CCC(C(F)(F)F)CC2)CC3)c2scc(C(=O)O)c2n1` (single isomer, unassigned) [Compound 373], the IC50 on human eIF4E protein is < 100 nM; in assay [1] (Homo sapiens, COLO 205, 72 h) it was < 5 µM.
On to `Cc1cc(-c2cc(Cl)ccc2OCCn2c(C)nc3c(c2=O)C[C@H](N2CCCC[C@@H]2C)CC3)c2scc(C(=O)O)c2n1` (single isomer, unassigned) [Compound 436], for which the IC50 is < 100 nM on human eIF4E protein and < 5 µM in assay [1] (Homo sapiens, COLO 205, 72 h).
In the case of `Cc1cc(-c2cc(Cl)ccc2OCCn2c(C)nc3c(c2=O)C[C@@H](N2CCC(COC(F)(F)F)CC2)CC32CC2)c2scc(C(=O)O)c2n1` (single isomer, unassigned) [Compound 561], the IC50 at human eIF4E protein was < 100 nM; in assay [1] (Homo sapiens, COLO 205, 72 h), < 5 µM.
Taken in the same sequence, the figures for `Cc1cc(-c2cc(Cl)ccc2OCCn2c(C)nc3c(c2=O)C[C@H](N2CCC(n4cc(Cl)cn4)CC2)CC3)c2scc(C(=O)O)c2n1` (single isomer, unassigned) [Compound 108] were < 100 nM and < 5 µM.
On to `Cc1cc(-c2cc(Cl)ccc2OCCn2c(C)nc3c(c2=O)C[C@@H](N2CCCC[C@H]2c2cccc(F)c2)CC32CC2)c2scc(C(=O)O)c2n1` (single isomer, unassigned) [Compound 628, 7-(5-chloro-2-(2-(6′-(2-(3-fluorophenyl)piperidin-1-yl)-2′-methyl-4′-oxo-6′,7′-dihydro-4′H-spiro[cyclopropane-1,8′-quinazolin]-3′(5′H)-yl)ethoxy)phenyl)-5-methylthieno[3,2-b]pyridine-3-carboxylic acid], for which the concentration for half-maximal inhibition (IC50) on human eIF4E protein is < 100 nM; in assay [1] (Homo sapiens, COLO 205, 72 h), < 5 µM.
For `Cc1cc(-c2cc(Cl)ccc2OCCn2c(C)nc3c(c2=O)C[C@@H](N(C)C24CC5CC(CC(C5)C2)C4)CC3)c2scc(C(=O)O)c2n1` (single isomer, unassigned) [Compound 493], in that order: < 100 nM and < 5 µM.
Regarding `CO[C@@H]1CCN([C@H]2CCc3nc(C)n(CCOc4ccc(Cl)cc4-c4cc(C)nc5c(C(=O)O)csc45)c(=O)c3C2)C[C@@H]1F` (single isomer, unassigned) [Compound 367], the 50% inhibitory concentration (IC50) was < 100 nM at human eIF4E protein and < 5 µM in assay [1] (Homo sapiens, COLO 205, 72 h).
For `Cc1cc(-c2cc(Cl)ccc2OCCn2c(C)nc3c(c2=O)C[C@H](N2CCCC[C@@H]2c2cccc(F)c2)CC3)c2scc(C(=O)O)c2n1` (single isomer, unassigned) [Compound 541], in that order: < 100 nM and < 5 µM.
Taken in the same sequence, the figures for `Cc1cc(-c2cc(Cl)ccc2OCCn2c(C)nc3c(c2=O)C[C@@H](N2CCC(c4ncccc4F)CC2)CC3)c2scc(C(=O)O)c2n1` (single isomer, unassigned) [Compound 445] were < 100 nM and < 5 µM.
In the case of `Cc1cc(-c2cc(Cl)ccc2OCCn2c(C)nc3c(c2=O)CC(N2CCC(CC(F)(F)F)CC2)CC3(C)C)c2scc(C(=O)O)c2n1` (single isomer, unassigned) [Compound 500], the values for the concentration for half-maximal inhibition (IC50) (on human eIF4E protein; in assay [1]) were < 100 nM and < 5 µM, respectively.
Consider `Cc1cc(-c2cc(Cl)ccc2OCCn2c(C)nc3c(c2=O)C[C@@H](N(C)[C@H]2CC[C@@](C)(O)CC2)CC3)c2scc(C(=O)O)c2n1` (single isomer, unassigned) [Compound 225], for which the IC50 is < 100 nM at human eIF4E protein and > 20 µM in assay [1] (Homo sapiens, COLO 205, 72 h).
For `Cc1cc(-c2cc(Cl)ccc2OCCn2c(C)nc3c(c2=O)C[C@@H](N2CCO[C@@H](COC(F)(F)F)C2)CC3)c2scc(C(=O)O)c2n1` (single isomer, unassigned) [Compound 479], in that order: < 100 nM and < 5 µM.
For the compound `Cc1cc(-c2cc(Cl)c(=O)[nH]c2OCCn2c(C)nc3c(c2=O)CC(N(C)C2CC2)CC3)c2scc(C(=O)O)c2n1` (single isomer, unassigned) [Compound 234], the IC50 on human eIF4E protein was 500 to 5000 nM; in assay [1], > 20 µM.
Take `COc1cc(C2CCN([C@@H]3CCc4nc(C)n(CCOc5ccc(Cl)cc5-c5cc(C)nc6c(C(=O)O)csc56)c(=O)c4C3)CC2)ccn1` (single isomer, unassigned) [Compound 575]: the IC50 on human eIF4E protein was < 100 nM; in assay [1] (Homo sapiens, COLO 205, 72 h), < 5 µM.
As for `Cc1cc(-c2cc(Cl)ccc2OCCn2c(C)nc3c(c2=O)CC(C)(N2CCC4(CC2)CC4(F)F)CC3)c2scc(C(=O)O)c2n1` (single isomer, unassigned) [Compound 557], the IC50 is < 100 nM at human eIF4E protein and < 5 µM in assay [1].
For `Cc1cc(-c2cc(Cl)ccc2OCCn2c(C)nc3c(c2=O)C[C@@H](N2CCC(c4cc(F)cc(F)c4F)CC2)CC3)c2scc(C(=O)O)c2n1` (single isomer, unassigned) [Compound 574], the IC50 was < 100 nM at human eIF4E protein and < 5 µM in assay [1] (Homo sapiens, COLO 205, 72 h).
Take `Cc1cc(-c2cc(Cl)ccc2OCCn2c(C)nc3c(c2=O)CC(N2CCC(OC(F)(F)F)CC2)CC3)c2scc(C(=O)NS(=O)(=O)C(F)F)c2n1` (single isomer, unassigned) [Compound 416]: the IC50 at human eIF4E protein was < 100 nM; in assay [1] (Homo sapiens, COLO 205, 72 h), 5 to 20 µM.
For `Cc1cc(-c2cc(Cl)ccc2OCCn2c(C)nc3c(c2=O)C[C@@H](N2CCC(c4ccn(C)n4)CC2)CC3)c2scc(C(=O)O)c2n1` (single isomer, unassigned) [Compound 454], in that order: < 100 nM and < 5 µM.
